What follows are compounds tested against MAPK14;MAPK11;MAPK12 (human) (UniProt Q16539) (assay: Inhibition of p38 Kinase Activity).

Row | Structure (SMILES) | IC50
1 | Cc1ccc(C(N)=O)cc1Nc1nc(NCC2CCCCC2)nc(N[C@@H]2CCNC2)n1 | < 1000 nM
2 | Cc1ccc(C(N)=O)cc1Nc1nc(N[C@H]2CCNC2)cc(N(C)CC(C)(C)C)n1 | < 1000 nM
3 | CNC(=O)c1ccc(C)c(Nc2nc(NC3CCN(Cc4ccccc4)C3)nc(N(C)CC(C)C)n2)c1 (stereo not drawn) | < 1000 nM
4 | Cc1ccc(-c2nn(C)c(=O)[nH]2)cc1Nc1nc(N[C@@H]2CCNC2)nc(N(C)CC(C)(C)C)n1 | < 1000 nM
5 | CNC(=O)c1ccc(C)c(Nc2nc(NCC(C)(C)C)nc(N[C@H]3CCNC3)n2)c1 | < 1000 nM
6 | Cc1ccc(C(N)=O)cc1Nc1nc(N[C@H]2CCN(C(C)C)C2)nc(N(C)CC(C)C)n1 | < 1000 nM
7 | Cc1ccc(C(N)=O)cc1Nc1nc(Cl)nc(N[C@@H]2CCNC2)n1 | < 1000 nM
8 | CCCCNc1nc(Nc2cc(C(N)=O)ccc2C)nc(N[C@H]2CCNC2)n1 | < 1000 nM
9 | CNCCN(C)c1nc(NCC2CCC3CC2C3(C)C)nc(Nc2ccc3ncccc3c2)n1 (stereo not drawn) | < 10000 nM
10 | CONC(=O)c1ccc(C)c(Nc2nc(NCCn3cccn3)nc(N(C)CC(C)(C)C)n2)c1 | < 1000 nM
11 | Cc1ccc(C(N)=O)cc1Nc1nc(N[C@H]2CCN(Cc3ccccc3)C2)nc(N(C)CC(C)C)n1 | < 1000 nM
12 | CONC(=O)c1ccc(C)c(Nc2nc(NCC3CCC(=O)N3)nc(N(C)CC(C)(C)C)n2)c1 (stereo not drawn) | < 1000 nM
13 | Cc1ccc(C(N)=O)cc1Nc1nc(NC2CCCNC2)nc(N(C)CC(C)C)n1 (stereo not drawn) | < 1000 nM
14 | NC(=O)CNc1nc(NCCc2ccccc2)nc(Nc2ccc3ncsc3c2)n1 | < 10000 nM
15 | CNC(=O)c1ccc(C)c(Nc2nc(N[C@H]3CCN(C(C)C)C3)nc(N(C)CC(C)(C)C)n2)c1 | < 1000 nM
16 | CC(CNc1nc(Nc2ccc3ncsc3c2)nc(N2CC3CC2CN3C(=O)c2cccnc2)n1)c1ccccc1 (stereo not drawn) | < 10000 nM
17 | CCOC(=O)Nc1ccc(C)c(Nc2nc(N[C@H]3CCNC3)nc(N(C)CC(C)(C)C)n2)c1 | < 1000 nM
18 | CC(CNc1nc(N)nc(Nc2ccc3ncsc3c2)n1)c1ccccc1 (stereo not drawn) | < 10000 nM
19 | CNCCN(C)c1nc(NCc2ccc(F)cc2F)nc(-n2cnc3ccccc32)n1 | < 10000 nM
20 | Cc1ccc(C)c(CN2CC[C@H](Nc3nc(Nc4cc(C(N)=O)ccc4C)nc(N(C)CC(C)C)n3)C2)c1 | < 1000 nM
21 | CONC(=O)c1ccc(C)c(Nc2nc(N(C)CC(C)(C)C)nc(-n3ccnc3)n2)c1 | < 1000 nM
22 | CNC(=O)c1ccc(C)c(Nc2nc(N[C@H]3CCNC3)nc(SCC(C)C)n2)c1 | < 1000 nM
23 | CC(CNc1nc(Nc2ccc3ncsc3c2)nc(N2CCCCC2)n1)c1ccccc1 (stereo not drawn) | < 10000 nM
24 | CC(CNc1nc(Nc2ccc3ncsc3c2)nc(N(C)CCCN(C)S(=O)(=O)N(C)C)n1)c1ccccc1 (stereo not drawn) | < 10000 nM

Row | Structure (SMILES) | IC50
25 | Cc1ccc(C(N)=O)cc1Nc1nc(NCC(C)c2ccccc2)nc(N[C@@H]2CCNC2)n1 (stereo partly drawn) | < 1000 nM
26 | CONC(=O)c1ccc(C)c(Nc2nc(NC(C)c3ccccn3)nc(N(C)CC(C)(C)C)n2)c1 (stereo not drawn) | < 1000 nM
27 | Cc1ccc(C(N)=O)cc1Nc1nc(NCC23CC4CC(CC(C4)C2)C3)nc(NC2CCNC2)n1 (stereo not drawn) | < 1000 nM
28 | CCCc1nc(NCc2ccc(S(N)(=O)=O)cc2)nc(Nc2cccc(-c3ccccc3)c2)n1 | < 10000 nM
29 | CONC(=O)c1ccc(C)c(Nc2nc(F)cc(N(C)CC(C)(C)C)n2)c1 | < 1000 nM
30 | Cc1ccc(C(N)=O)cc1Nc1nc(NC2CCN(Cc3ccccc3)C2)nc(N(C)CC(C)C)n1 (stereo not drawn) | < 1000 nM
31 | Cc1ccc2ncn(-c3nc(F)cc(NCCOC(C)C)n3)c2c1 | < 10000 nM
32 | CC(CNc1nc(Nc2ccc3ncsc3c2)nc(N2CCN(C(=O)c3ccco3)CC2)n1)c1ccccc1 (stereo not drawn) | < 10000 nM
33 | Cc1ccc(C(N)=O)cc1Nc1nc(N[C@H]2CCCC[C@H]2NC(C)C)nc(N(C)CC(C)(C)C)n1 | < 1000 nM
34 | CC(CNc1nc(Nc2ccc3ncsc3c2)nc(N(C)CCCN(C)C(=N)N)n1)c1ccccc1 (stereo not drawn) | < 10000 nM
35 | Cc1ccc(C(N)=O)cc1Nc1nc(NC2CCCCC2)nc(N(C)CC(C)(C)C)n1 | < 1000 nM
36 | CONC(=O)c1ccc(C)c(Nc2nc(N(C)CC(C)(C)C)cc(N3CCCN(C)CC3)n2)c1 | < 1000 nM
37 | CC1(C)[C@@H]2CC[C@@H](CNc3nc(NC4CCNCC4)nc(N4CCc5ccc([N+](=O)[O-])cc54)n3)[C@H]1C2 | < 1000 nM
38 | Cc1ccc(C(=O)Nc2c(Cl)cccc2Cl)cc1Nc1nc(N[C@H]2CCNC2)nc(N(C)CC(C)(C)C)n1 | < 1000 nM
39 | Cc1ccc(COC(=O)C(F)(F)F)cc1Nc1nc(N[C@H]2CCNC2)nc(N(C)CC(C)(C)C)n1 | < 1000 nM
40 | CC(Cc1ccccc1)Nc1nc(Nc2ccc3ncsc3c2)nc(N(C)C)n1 (stereo not drawn) | < 10000 nM
41 | NC(=O)C1CCN(c2nc(Nc3ccc4ncsc4c3)cc(NC3CCC3)n2)CC1 | < 10000 nM
42 | CCCN(C)c1nc(Nc2cc(C(N)=O)ccc2C)nc(N[C@H]2CCNC2)n1 | < 1000 nM
43 | CC(CNc1nc(Nc2ccc3ncsc3c2)nc(N(C)CCCN(C)C(=O)c2cccnc2)n1)c1ccccc1 (stereo not drawn) | < 10000 nM
44 | Cc1ccc(C(N)=O)cc1Nc1nc(NC2CCN(Cc3ccccc3)C2)nc(N[C@H]2CCNC2)n1 (stereo partly drawn) | < 1000 nM
45 | CONC(=O)c1ccc(C)c(Nc2nc(N[C@@H]3CCCNC3=O)nc(N(C)CC(C)(C)C)n2)c1 | < 1000 nM
46 | CCONC(=O)c1ccc(C)c(Nc2nc(NC)nc(N(C)CC(C)(C)C)n2)c1 | < 1000 nM
47 | Cc1ccc(C(N)=O)cc1Nc1nc(N[C@@H]2CCN(C(C)C)C2)nc(N(C)CC(C)(C)C)n1 | < 1000 nM
48 | Cc1ccc(-c2ncc[nH]2)cc1Nc1nc(N(C)CC(C)(C)C)nc(N2CCCN(C)CC2)n1 | < 1000 nM

Row | Structure (SMILES) | IC50
49 | COC[C@H]1C[C@@H](Nc2nc(Nc3cc(C(N)=O)ccc3C)nc(N(C)CC(C)(C)C)n2)CN1 | < 1000 nM
50 | CCONC(=O)c1ccc(C)c(Nc2nc(NC3CCS(=O)(=O)C3)nc(N(C)CC(C)(C)C)n2)c1 (stereo not drawn) | < 1000 nM
51 | Cc1cc(Cl)c(C(N)=O)cc1Nc1nc(N[C@H]2CCNC2)nc(N(C)CC(C)C)n1 | < 1000 nM
52 | CONC(=O)c1ccc(C)c(Nc2nc(N(C)CCN(C)C)nc(N(C)CC(C)(C)C)n2)c1 | < 1000 nM
53 | CCONC(=O)c1ccc(C)c(Nc2nc(N(C)CC(C)(C)C)nc(N3CCCN(C)CC3)n2)c1 | < 1000 nM
54 | CC(CNc1nc(Nc2ccc3ncsc3c2)nc(N(C)CCCN(C)C(=O)c2ccco2)n1)c1ccccc1 (stereo not drawn) | < 10000 nM
55 | Cc1ccc2c(c1Nc1nc(N[C@H]3CCNC3)nc(N(C)CC(C)(C)C)n1)CNC2=O | < 1000 nM
56 | Cc1ccc(C(N)=O)cc1Nc1nc(NCC(C)(C)C)nc(N[C@H]2CCNC2)n1 | < 1000 nM
57 | Cc1ccc(C(=O)Nc2ccc(F)cc2)cc1Nc1nc(N[C@H]2CCNC2)nc(N(C)CC(C)(C)C)n1 | < 1000 nM
58 | Clc1nc(Nc2ccc3ncsc3c2)nc(N[C@H]2C[C@H]2c2ccccc2)n1 | < 10000 nM
59 | CC1(C)C2CCC(CNc3nc(Nc4ccc5ncsc5c4)cc(N4CCNCC4)n3)C1C2 (stereo not drawn) | < 10000 nM
60 | Cc1ccc(C(N)=O)cc1Nc1nc(NC2CCCC2)nc(N(CCO)Cc2ccccc2)n1 | < 1000 nM
61 | CONC(=O)c1ccc(C)c(Nc2nc(NCc3cccc(F)c3)nc(N(C)CC(C)(C)C)n2)c1 | < 1000 nM
62 | CC(=O)NCCNc1nc(Nc2cc(C(N)=O)ccc2C)nc(N(C)CC(C)(C)C)n1 | < 1000 nM
63 | Cc1ccc(C(N)=O)cc1Nc1nc(NCC2CC3CCC2C3)nc(N[C@H]2CCNC2)n1 (stereo partly drawn) | < 1000 nM
64 | COc1ccc(CN2CCC(Nc3nc(Nc4cc(C(N)=O)ccc4C)nc(N(C)CC(C)C)n3)C2)cc1 (stereo not drawn) | < 1000 nM
65 | CNC(=O)c1ccc(C)c(Sc2nc(NCc3ccccn3)nc(N(C)CC(C)(C)C)n2)c1 | < 30000 nM
66 | CN1CCCN(c2nc(Sc3cc(C(N)=O)ccc3F)nc(N(C)CC(C)(C)C)n2)CC1 | < 30000 nM
67 | Cc1ccc(C(N)=O)cc1Nc1nc(NC2CNC2)nc(N(C)CC(C)(C)C)n1 | < 1000 nM
68 | CC(C)(Cc1ccccc1)Nc1nc(Nc2ccc3ncsc3c2)nc(N2CCNCC2)n1 | < 10000 nM
69 | CONC(=O)c1ccc(C)c(Nc2nc(N[C@H]3CNC(=O)C3)nc(N(C)CC(C)(C)C)n2)c1 | < 1000 nM
70 | Cc1ccc(C(N)=O)cc1Nc1nc(N[C@H]2CCCC[C@H]2NC(=O)CO[C@H]2C[C@@H](C)CC[C@H]2C(C)C)nc(N(C)CC(C)C)n1 | < 1000 nM
71 | CC1(C)C2CCC(CNc3nc(Nc4ccc5ncsc5c4)nc(N4CCC(C(N)=O)CC4)n3)C1C2 (stereo not drawn) | < 10000 nM
72 | CCNC(=O)c1ccc(C)c(Nc2nc(NC[C@H]3CCCN3)nc(N(C)CC(C)C)n2)c1 | < 1000 nM

Row | Structure (SMILES) | IC50
73 | Cc1ccc(C(N)=O)cc1Nc1nc(N[C@@H]2CCNC2)nc(N2CCC(C)(C)CC2)n1 | < 1000 nM
74 | Cc1ccc(S(N)(=O)=O)cc1Nc1nc(N[C@H]2CCNC2)nc(N(C)CC(C)(C)C)n1 | < 1000 nM
75 | CC(=O)Nc1ccc(C)c(Nc2nc(NCC(C)(C)C)nc(N[C@H]3CCNC3)n2)c1 | < 1000 nM
76 | Cc1ccc(C(N)=O)cc1Nc1nc(N[C@@H]2CCNC2)nc(N2CCc3ccccc3C2)n1 | < 1000 nM
77 | CC(CNc1nc(Nc2ccc3ncsc3c2)nc(N(C)CCCN(C)C(=O)c2ccccc2)n1)c1ccccc1 (stereo not drawn) | < 10000 nM
78 | CONC(=O)c1ccc(C)c(Nc2nc(NCCc3ccccn3)nc(N(C)CC(C)(C)C)n2)c1 | < 1000 nM
79 | CNc1nc(NCCOC(C)C)nc(Nc2ccc3ncsc3c2)n1 | < 10000 nM
80 | Cc1ccc(CO)cc1Nc1nc(N[C@H]2CCNC2)nc(N(C)CC(C)(C)C)n1 | < 1000 nM
81 | CCONC(=O)c1ccc(C)c(Nc2nc(NC)cc(N(C)CC(C)(C)C)n2)c1 | < 1000 nM
82 | Cc1ccc(C(N)=O)cc1Nc1nc(NCC2CCC2)nc(N[C@H]2CCNC2)n1 | < 1000 nM
83 | CONC(=O)c1ccc(C)c(Nc2nc(NCCNc3ccccc3)nc(N(C)CC(C)(C)C)n2)c1 | < 1000 nM
84 | Cc1ccc(C(N)=O)cc1Nc1nc(NC2CCCC2)nc(N[C@@H]2CCNC2)n1 | < 1000 nM
85 | Cc1ccc(C(N)=O)cc1Nc1nc(NC2CCc3ccccc32)nc(N[C@@H]2CCNC2)n1 (stereo partly drawn) | < 1000 nM
86 | Cc1ccc(-c2n[nH]c(=O)[nH]2)cc1Nc1nc(N(C)CC(C)(C)C)nc(N2CCCN(C)CC2)n1 | < 1000 nM
87 | Cc1ccccc1NC(=O)c1ccc(C)c(Nc2nc(N[C@H]3CCNC3)nc(N(C)CC(C)(C)C)n2)c1 | < 1000 nM
88 | Cc1ccc(C(N)=O)cc1Nc1nc(NCCc2ccc(Cl)cc2)nc(N[C@H]2CCNC2)n1 | < 1000 nM
89 | COCCNC(=O)c1ccc(C)c(Nc2nc(N[C@H]3CCNC3)nc(N(C)CC(C)(C)C)n2)c1 | < 1000 nM
90 | Cc1ccc(C(N)=O)cc1Nc1nc(N[C@H]2CCNC2)nc(OCC(C)(C)C)n1 | < 1000 nM
91 | CNc1nc(Nc2ccc3ncsc3c2)nc(N[C@@H](C)C2CCCCC2)n1 | < 10000 nM
92 | Cc1ccc(C(N)=O)cc1Nc1nc(NCC(C)C)nc(N[C@H]2CCNC2)n1 | < 1000 nM
93 | CCc1ccc(CN2CC[C@@H](Nc3nc(Nc4cc(C(N)=O)ccc4C)nc(N(C)CC(C)C)n3)C2)cc1 | < 1000 nM
